{
  "source": "patent US20250353891A1",
  "about": "(MEDIMMUNE LIMITED, priority 2022, published 2025)",
  "note": "Starred links: 1 amine or outer side, 2 acyl side, 3 side chain; linkers in the order of their positions; H or OH if unused. Non-standard residues stand in square brackets, D forms with d. Residues, ends and D or L forms follow the SMILES beside them. Groups on a side chain read outwards from the residue. *: point of attachment. X1 = CC(C)(CCNC(=N)N)[C@H](N[*:1])C(=O)[*:2]; C18 diacid = O=C(O)CCCCCCCCCCCCCCCCC(=O)*; γGlu = O=C(O)[C@H](CCC(=O)[*:2])N[*:1]; Stearoyl = CCCCCCCCCCCCCCCCCC(=O)*; Palmitoyl = CCCCCCCCCCCCCCCC(=O)*; αMeF = C[C@](N)(Cc1ccccc1)C(=O)O; Myristoyl = CCCCCCCCCCCCCC(=O)*; PEG2 = NCCOCCOCCC(=O)O; AEEA = NCCOCCOCC(=O)O; Aib = CC(C)(N)C(=O)O",
  "data": [
    {"molecular_target": "human GLP-1 receptor (hGLP-1R) (Homo sapiens, UniProt P43220)", "sequence (P43220 24-463)": "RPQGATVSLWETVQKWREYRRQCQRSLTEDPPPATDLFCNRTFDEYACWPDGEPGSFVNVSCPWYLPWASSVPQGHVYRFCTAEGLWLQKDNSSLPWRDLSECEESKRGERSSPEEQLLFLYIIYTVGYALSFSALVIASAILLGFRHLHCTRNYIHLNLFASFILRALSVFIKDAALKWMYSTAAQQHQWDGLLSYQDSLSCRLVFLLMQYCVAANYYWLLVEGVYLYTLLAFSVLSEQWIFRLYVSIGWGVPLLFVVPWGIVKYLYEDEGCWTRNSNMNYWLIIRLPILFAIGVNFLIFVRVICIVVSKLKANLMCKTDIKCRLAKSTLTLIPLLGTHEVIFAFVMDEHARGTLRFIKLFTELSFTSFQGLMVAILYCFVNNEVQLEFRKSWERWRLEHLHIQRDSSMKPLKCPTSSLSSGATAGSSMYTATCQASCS", "assay": "cAMP production (HTRF) in CHO cells expressing hGLP-1R", "format": "cell-based", "design": "expressed in transfected cells", "conditions": "Table 6, peptides modified at position 17; cAMP in CHO hGLP-1R cells; geometric mean; read-out: hGLP-1R EC50", "method": "(§1) Cells were re-suspended in assay buffer at a batch-dependent optimized concentration (typically hGLP-1R cells at 1×10^5 cells/mL, hGCGR cells at 2×10^5 cells/mL).\n(§2) Cells were added to the assay plate using a multidrop dispenser and incubated at room temperature for 30 minutes before measuring the cAMP level using a cAMP dynamic 2 homogeneous time resolved Fluorescence (HTRF) kit (Cisbio Bioassays #62AM4PEJ) following the two-step protocol as per manufacturer's recommendations. In brief, anti-cAMP cryptate (donor fluorophore) and cAMP-d2 (acceptor fluorophore) were made up separately by diluting each 1 in 20 in conjugate and lysis buffer provided in the kit. Anti-CAMP cryptate was added to all wells of the assay plate, followed by cAMP-d2 added to all wells except non-specific binding (NSB) wells (to which conjugate and lysis buffer was added).\n(§3) Data was transformed to % Delta F as described in the manufacturer's guidelines and analyzed by 4-parameter logistic fit to determine EC50 values.", "units": {"EC50": "pM"}, "values": [
      {"compound": "CCCCCCCCCCCCCC(=O)N[C@@H](CCC(=O)NCCOCCOCCC(=O)NCCOCCOCCC(=O)NCCCC[C@H](NC(=O)[C@H](CO)NC(=O)[C@H](CC(=O)O)NC(=O)[C@H](CC(C)C)NC(=O)[C@@H](NC(=O)[C@H](CCCCN)NC(=O)[C@H](CO)NC(=O)[C@@H](NC(=O)[C@H](CC(=O)O)NC(=O)[C@H](CO)NC(=O)[C@@H](NC(=O)[C@](C)(Cc1ccccc1)NC(=O)[C@H](CO)NC(=O)CNC(=O)[C@H](CCC(N)=O)NC(=O)[C@H](CO)NC(=O)[C@@H](N)Cc1c[nH]cn1)[C@@H](C)O)C(C)C)[C@@H](C)CC)C(=O)N[C@@H](C)C(=O)N[C@@H](C)C(=O)N[C@@H](CCC(N)=O)C(=O)N[C@@H](CC(=O)O)C(=O)N[C@@](C)(Cc1ccccc1)C(=O)N[C@H](C(=O)N[C@@H](CCC(N)=O)C(=O)NC(C)(C)C(=O)N[C@H](C(=O)N[C@H](C(=O)N[C@@H](CC(N)=O)C(=O)N[C@H](C(N)=O)[C@@H](C)O)[C@@H](C)CC)[C@@H](C)CC)C(C)C)C(=O)O", "note": "[Peptide 122] (H-HSQGS[αMeF]TSDVSKILDSK([PEG2-PEG2-γGlu-Myristoyl])AAQD[αMeF]VQ[Aib]IINT-NH2; N-terminus assumed)", "EC50": 1.42}
    ]},
    {"molecular_target": "human GLP-1 receptor (hGLP-1R) (Homo sapiens, UniProt P43220)", "assay": "cAMP production (HTRF) in CHO cells expressing hGLP-1R", "format": "cell-based", "design": "expressed in transfected cells", "conditions": "Table 6; % GLP-1R activity relative to GLP-1 / % GlucR activity relative to glucagon", "method": "as §1, §2, §3", "values": [
      {"compound": "CCCCCCCCCCCCCCCCCC(=O)N[C@@H](CCC(=O)N[C@@H](CCC(=O)NCCOCCOCCC(=O)NCCOCCOCCC(=O)NCCCC[C@H](NC(=O)[C@H](CO)NC(=O)[C@H](CC(=O)O)NC(=O)[C@H](CC(C)C)NC(=O)[C@](C)(Cc1ccccc1)NC(=O)[C@H](CCCCN)NC(=O)[C@H](CO)NC(=O)[C@@H](NC(=O)[C@H](CC(=O)O)NC(=O)[C@H](CO)NC(=O)[C@@H](NC(=O)[C@](C)(Cc1ccccc1)NC(=O)[C@H](CO)NC(=O)CNC(=O)[C@H](CCC(N)=O)NC(=O)C(C)(C)NC(=O)[C@@H](N)Cc1c[nH]cn1)[C@@H](C)O)C(C)C)C(=O)N[C@H](C(=O)N[C@@H](C)C(=O)N[C@@H](CCC(N)=O)C(=O)N[C@@H](CC(=O)O)C(=O)N[C@@](C)(Cc1ccccc1)C(=O)N[C@H](C(=O)N[C@@H](CCC(=O)O)C(=O)NC(C)(C)C(=O)N[C@@H](CC(C)C)C(=O)N[C@@H](CCC(=O)O)C(=O)N[C@@H](C)C(=O)NCC(=O)NCC(N)=O)C(C)C)C(C)(C)CCNC(=N)N)C(=O)O)C(=O)O", "note": "[Peptide 74] (H-H[Aib]QGS[αMeF]TSDVSK[αMeF]LDSK([PEG2-PEG2-γGlu-γGlu-Stearoyl])[X1]AQD[αMeF]VE[Aib]LEAGG-NH2; N-terminus assumed)", "% Relative Potency Ratio": 11.8},
      {"compound": "CCCCCCCCCCCCCCCCCC(=O)N[C@@H](CCC(=O)N[C@@H](CCC(=O)NCCOCCOCCC(=O)NCCOCCOCCC(=O)NCCCC[C@H](NC(=O)[C@H](CO)NC(=O)[C@H](CC(=O)O)NC(=O)[C@H](CC(C)C)NC(=O)[C@](C)(Cc1ccccc1)NC(=O)[C@H](CCCCN)NC(=O)[C@H](CO)NC(=O)[C@@H](NC(=O)[C@H](CC(=O)O)NC(=O)[C@H](CO)NC(=O)[C@@H](NC(=O)[C@](C)(Cc1ccccc1)NC(=O)[C@H](CO)NC(=O)CNC(=O)[C@H](CCC(N)=O)NC(=O)[C@H](CO)NC(=O)[C@@H](N)Cc1c[nH]cn1)[C@@H](C)O)C(C)C)C(=O)N[C@@H](C)C(=O)N[C@@H](C)C(=O)N[C@@H](CCC(N)=O)C(=O)N[C@@H](CC(=O)O)C(=O)N[C@@](C)(Cc1ccccc1)C(=O)N[C@H](C(=O)N[C@@H](CCC(N)=O)C(=O)NC(C)(C)C(=O)N[C@H](C(=O)N[C@@H](C)C(=O)N[C@@H](CC(N)=O)C(=O)N[C@H](C(N)=O)[C@@H](C)O)[C@@H](C)CC)C(C)C)C(=O)O)C(=O)O", "note": "[Peptide 82] (H-HSQGS[αMeF]TSDVSK[αMeF]LDSK([PEG2-PEG2-γGlu-γGlu-Stearoyl])AAQD[αMeF]VQ[Aib]IANT-NH2; N-terminus assumed)", "% Relative Potency Ratio": 18.3},
      {"compound": "CCCCCCCCCCCCCCCC(=O)N[C@@H](CCC(=O)N[C@@H](CCC(=O)NCCOCCOCCC(=O)NCCOCCOCCC(=O)NCCCC[C@H](NC(=O)[C@H](CO)NC(=O)[C@H](CC(=O)O)NC(=O)[C@H](CC(C)C)NC(=O)[C@](C)(Cc1ccccc1)NC(=O)[C@H](CCCCN)NC(=O)[C@H](CO)NC(=O)[C@@H](NC(=O)[C@H](CC(=O)O)NC(=O)[C@H](CO)NC(=O)[C@@H](NC(=O)[C@](C)(Cc1ccccc1)NC(=O)[C@H](CO)NC(=O)CNC(=O)[C@H](CCC(N)=O)NC(=O)[C@H](CO)NC(=O)[C@@H](N)Cc1c[nH]cn1)[C@@H](C)O)C(C)C)C(=O)N[C@@H](C)C(=O)N[C@@H](C)C(=O)N[C@@H](CCC(N)=O)C(=O)N[C@@H](CC(=O)O)C(=O)N[C@@](C)(Cc1ccccc1)C(=O)N[C@H](C(=O)N[C@@H](CCC(N)=O)C(=O)N[C@H](C(=O)N[C@H](C(=O)N[C@@H](C)C(=O)N[C@@H](CC(N)=O)C(N)=O)[C@@H](C)CC)[C@@H](C)CC)C(C)C)C(=O)O)C(=O)O", "note": "[Peptide 89] (H-HSQGS[αMeF]TSDVSK[αMeF]LDSK([PEG2-PEG2-γGlu-γGlu-Palmitoyl])AAQD[αMeF]VQIIAN-NH2; N-terminus assumed)", "% Relative Potency Ratio": 8.0},
      {"compound": "CCCCCCCCCCCCCC(=O)N[C@@H](CCC(=O)NCCOCCOCCC(=O)NCCOCCOCCC(=O)NCCCC[C@H](NC(=O)[C@H](CO)NC(=O)[C@H](CC(=O)O)NC(=O)[C@H](CC(C)C)NC(=O)[C@@H](NC(=O)[C@H](CCCCN)NC(=O)[C@H](CO)NC(=O)[C@@H](NC(=O)[C@H](CC(=O)O)NC(=O)[C@H](CO)NC(=O)[C@@H](NC(=O)[C@](C)(Cc1ccccc1)NC(=O)[C@H](CO)NC(=O)CNC(=O)[C@H](CCC(N)=O)NC(=O)[C@H](CO)NC(=O)[C@@H](N)Cc1c[nH]cn1)[C@@H](C)O)C(C)C)[C@@H](C)CC)C(=O)N[C@@H](C)C(=O)N[C@@H](C)C(=O)N[C@@H](CCC(N)=O)C(=O)N[C@@H](CC(=O)O)C(=O)N[C@@](C)(Cc1ccccc1)C(=O)N[C@H](C(=O)N[C@@H](CCC(N)=O)C(=O)NC(C)(C)C(=O)N[C@H](C(=O)N[C@H](C(=O)N[C@@H](CC(N)=O)C(=O)N[C@H](C(N)=O)[C@@H](C)O)[C@@H](C)CC)[C@@H](C)CC)C(C)C)C(=O)O", "note": "[Peptide 122] (H-HSQGS[αMeF]TSDVSKILDSK([PEG2-PEG2-γGlu-Myristoyl])AAQD[αMeF]VQ[Aib]IINT-NH2; N-terminus assumed)", "% Relative Potency Ratio": 1.2},
      {"compound": "CC(C)C[C@H](NC(=O)[C@H](Cc1c[nH]c2ccccc12)NC(=O)[C@H](CCCNC(=N)N)NC(=O)[C@@H](NC(=O)[C@H](Cc1ccccc1)NC(=O)[C@H](CC(=O)O)NC(=O)[C@H](CCCNC(=N)N)NC(=O)[C@H](C)NC(=O)[C@H](CCCNC(=N)N)NC(=O)[C@H](CCCCNC(=O)CC[C@H](NC(=O)CC[C@H](NC(=O)COCCOCCNC(=O)COCCOCCNC(=O)CC[C@H](NC(=O)CC[C@H](NC(=O)CCCCCCCCCCCCCCCCC(=O)O)C(=O)O)C(=O)O)C(=O)O)C(=O)O)NC(=O)[C@H](CO)NC(=O)[C@H](CC(=O)O)NC(=O)[C@H](CC(C)C)NC(=O)[C@](C)(Cc1ccccc1)NC(=O)[C@H](CCCCN)NC(=O)[C@H](CO)NC(=O)[C@@H](NC(=O)[C@H](CC(=O)O)NC(=O)[C@H](CO)NC(=O)[C@@H](NC(=O)[C@H](Cc1ccccc1)NC(=O)[C@@H](NC(=O)CNC(=O)[C@H](CCC(N)=O)NC(=O)C(C)(C)NC(=O)[C@@H](N)Cc1c[nH]cn1)[C@@H](C)O)[C@@H](C)O)C(C)C)C(C)C)C(=O)N[C@@H](CC(C)C)C(=O)N[C@@H](CCC(=O)O)C(=O)NC(C)(C)C(=O)NCC(=O)O", "note": "[Peptide 136] (H-H[Aib]QGTFTSDVSK[αMeF]LDSK([γGlu-γGlu-AEEA-AEEA-γGlu-γGlu-C18 diacid])RARDFVRWLLE[Aib]G-OH; N-terminus assumed)", "% Relative Potency Ratio": 22.3}
    ]}
  ]
}
